According to ChEMBL document CHEMBL4823326 (ACS Med Chem Lett, 2021):
pIC50: −log10 of the molar value.

Tests used:
HEK293 = assay: Induction of autophagy in human HEK293 cells expressing GFP-LC3B-RFP assessed as decrease in fluorescence at 10 uM after 24 hrs by multilabel counter method; assay type: functional; parameters: scale not given: the % may be the effect or the level left
Prolyl endopeptidase = Prolyl endopeptidase (Sus scrofa, UniProt P23687); assay: Inhibition of recombinant porcine PREP expressed in Escherichia coli using Suc-Gly-Pro-AMC as substrate preincubated for 30 mins followed by substrate addition and measured after 60 mins by multilabel counter analysis
Chain of Prolyl endopeptidase (P23687 whole entry): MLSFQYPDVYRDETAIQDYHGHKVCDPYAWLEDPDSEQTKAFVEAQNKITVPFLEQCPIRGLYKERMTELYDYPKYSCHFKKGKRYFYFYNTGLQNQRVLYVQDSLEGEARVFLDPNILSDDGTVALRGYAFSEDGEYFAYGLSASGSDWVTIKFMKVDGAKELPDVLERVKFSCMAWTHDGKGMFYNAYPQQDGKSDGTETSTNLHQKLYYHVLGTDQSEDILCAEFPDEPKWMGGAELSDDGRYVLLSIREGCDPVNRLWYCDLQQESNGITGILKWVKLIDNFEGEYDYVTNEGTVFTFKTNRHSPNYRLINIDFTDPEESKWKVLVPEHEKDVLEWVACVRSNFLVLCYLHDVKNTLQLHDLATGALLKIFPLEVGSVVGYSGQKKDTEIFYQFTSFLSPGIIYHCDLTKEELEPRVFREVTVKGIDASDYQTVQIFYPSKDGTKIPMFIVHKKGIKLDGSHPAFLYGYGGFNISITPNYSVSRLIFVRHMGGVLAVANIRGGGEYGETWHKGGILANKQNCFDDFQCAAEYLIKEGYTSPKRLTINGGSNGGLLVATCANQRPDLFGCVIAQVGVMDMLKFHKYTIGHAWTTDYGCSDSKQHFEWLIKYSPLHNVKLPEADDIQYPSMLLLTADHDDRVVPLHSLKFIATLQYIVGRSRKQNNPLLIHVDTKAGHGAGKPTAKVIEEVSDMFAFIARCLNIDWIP

SMILES | pIC50 (Prolyl endopeptidase) | Activity (HEK293) [%]
N#C[C@@H]1CCCN1C(=O)[C@@H]1CCCN1C(=O)CCCc1ccccc1 |  | 89
O=C(CCCc1ccccc1)N1CCC[C@H]1C(=O)N1CCC[C@H]1c1ccn[nH]1 | 4.15 | 
CN(CC(=O)N1CCC[C@H]1c1nnn[nH]1)C(=O)CCc1ccccc1 | 4.21 | 

More lines, in order of rising pIC50 (Prolyl endopeptidase), values ahead:

pIC50 (Prolyl endopeptidase) | SMILES | Activity (HEK293) [%]
4.26 | C[C@H](NC(=O)CCCc1ccccc1)C(=O)N1CCC[C@H]1c1nnc[nH]1 | 
4.54 | O=C(CCCc1ccccc1)N1CCC[C@H]1C(=O)N1CCC[C@H]1c1nnc[nH]1 | 
4.92 | Cn1nnc([C@@H]2CCCN2C(=O)[C@@H]2CCCN2C(=O)CCCc2ccccc2)n1 | 
